In assay [1] the target is Metallo-beta-lactamase type 2 (Bacteria, UniProt C7C422). The experiment in a line: Inhibition of Metallo-beta-lactamase NDM-1 (unknown origin) using nitrocefin as substrate incubated for 5 to 10 mins by spectramax reader analysis.
Assay [2] deals with Escherichia coli. The experiment in a line: Antibacterial activity against NDM-1 producing Escherichia coli assessed as inhibition of bacterial growth incubated overnight by broth microdilution assay. Type of assay: functional. A general note: In broth dilution the organism is exposed to a series of concentrations in liquid medium.
Assay [3] relates to Escherichia coli. The experiment in a line: Antibacterial activity against NDM-1 producing Escherichia coli assessed as inhibition of bacterial growth at 4 ug/ml incubated for 5 hrs by time-kill assay. The class given is functional, organism-based. To be noted: dose 4.0 µg/ml.
Assay [4] deals with Escherichia coli. The experiment in a line: Antibacterial activity in NDM-1 producing Escherichia coli infected in BALB/c mouse assessed as increase in animal survival rate at 10 mg/kg,SC administrated upto 120 hrs for every 12 hrs interval. Type of assay: functional.
In assay [5] the test system is Escherichia coli. The experiment in a line: Antibacterial activity in NDM-1 producing Escherichia coli infected in BALB/c mouse assessed as reduction of bacterial burden in liver at 10 mg/kg,SC administration measured after 96 hrs of post-infection. Type of assay: functional, organism-based.
The test system of assay [6] is Escherichia coli. Put plainly: Antibacterial activity in NDM-1 producing Escherichia coli infected in BALB/c mouse assessed as reduction of bacterial burden in spleen at 10 mg/kg,SC administration measured after 96 hrs of post-infection. The class given is functional, organism-based.
In assay [7] the test system is Escherichia coli. The experiment in a line: Antibacterial activity in NDM-1 producing Escherichia coli infected in BALB/c mouse assessed as reduction of bacterial burden in small intestine at 10 mg/kg,SC administration measured after 96 hrs of post-infection. Type of assay: functional, organism-based.
Assay [8] relates to Escherichia coli. Put plainly: Antibacterial activity in NDM-1 producing Escherichia coli infected in BALB/c mouse assessed as decrease in pathological damage in liver at 10 mg/kg,SC administration measured after 96 hrs of post-infection by hematoxylin and eosin staining based assay. Type of assay: functional, organism-based.
The subject of assay [9] is Escherichia coli. The experiment in a line: Antibacterial activity in NDM-1 producing Escherichia coli infected in BALB/c mouse assessed as decrease in pathological damage in spleen at 10 mg/kg,SC administration measured after 96 hrs of post-infection by hematoxylin and eosin staining based assay. The class given is functional, organism-based.
Assay [10] relates to Escherichia coli. Put plainly: Antibacterial activity in NDM-1 producing Escherichia coli infected in BALB/c mouse assessed as decrease in pathological damage in small intestine at 10 mg/kg,SC administration measured after 96 hrs of post-infection by hematoxylin and eosin staining based assay. The class given is functional, organism-based.
Assay [11] deals with Escherichia coli. Put plainly: Synergistic antibacterial activity against NDM-1 producing Escherichia coli assessed as inhibition of bacterial growth incubated overnight in presence of meropenem by broth microdilution assay. The class given is functional.
Assay [12] concerns Escherichia coli. The experiment in a line: Synergistic antibacterial activity against NDM-1 producing Escherichia coli assessed as inhibition of bacterial growth by measuring meropenem MIC incubated overnight in presence of meropenem by broth microdilution assay. Type of assay: functional.
Assay [13] deals with Escherichia coli. The experiment in a line: Synergistic antibacterial activity against NDM-1 producing Escherichia coli assessed as fractional inhibitory concentration index in presence of meropenem by checkerboard broth microdilution assay. The class given is functional.
Assay [14] concerns the target T1, Beta-lactamase NDM-1 (Escherichia coli, UniProt E5KIY2). The experiment in a line: Inhibition of Escherichia coli NDM-1 expressed in Escherichia coli BL21 (DE3) using nitrocefin as substrate by microplate reader analysis.
For assay [15], the target named is Beta-lactamase NDM-1 (Escherichia coli) (UniProt E5KIY2). Put plainly: Inhibition of Escherichia coli NDM-1 expressed in Escherichia coli BL21 (DE3) using nitrocefin as substrate at 10 ug/ml by microplate reader analysis relative to control. The following applies: dose 10.0 µg/ml.
Assay [16] deals with Escherichia coli. The experiment in a line: Antibacterial activity against NDM-1 producing Escherichia coli assessed as inhibition of bacterial growth at 2 to 512 ug/ml incubated overnight by broth microdilution assay. Type of assay: functional, organism-based. The following applies: dose 2-512 µg/ml.
Assay [17] deals with Escherichia coli. Put plainly: Antibacterial activity against NDM-1 producing Escherichia coli assessed as inhibition of bacterial growth at 64 ug/ml incubated for 5 hrs by time-kill assay. Type of assay: functional, organism-based. The following applies: dose 64.0 µg/ml.
In assay [18] the test system is Escherichia coli. The experiment in a line: Antibacterial activity in NDM-1 producing Escherichia coli infected in BALB/c mouse assessed as increase in animal survival rate at 10 mg/kg,IG administrated upto 120 hrs for every 12 hrs interval. Type of assay: functional. To be noted: po.
Assay [19] concerns Escherichia coli. The experiment in a line: Synergistic antibacterial activity in NDM-1 producing Escherichia coli infected in BALB/c mouse assessed as increase in animal survival rate at 10 mg/kg,IG administrated with meropenem by subcutaneous injection upto 120 hrs for every 12 hrs interval. The class given is functional.
In assay [20] the test system is Escherichia coli. The experiment in a line: Antibacterial activity in NDM-1 producing Escherichia coli infected in BALB/c mouse assessed as effect on white blood cell count at 10 mg/kg,IG administration measured after 96 hrs of post-infection. Type of assay: functional, organism-based.
Assay [21] concerns Escherichia coli. The experiment in a line: Antibacterial activity in NDM-1 producing Escherichia coli infected in BALB/c mouse assessed as decrease in TNF-alpha level at 10 mg/kg,IG administration measured after 96 hrs of post-infection by ELISA. The class given is functional, organism-based. Background: An ELISA detects its analyte on a solid surface through an enzyme-linked reagent.

Assay [22] relates to Escherichia coli. The experiment in a line: Antibacterial activity in NDM-1 producing Escherichia coli infected in BALB/c mouse assessed as decrease in IL-1beta level at 10 mg/kg,IG administration measured after 96 hrs of post-infection by ELISA. Type of assay: functional, organism-based.
In assay [23] the test system is Escherichia coli. The experiment in a line: Antibacterial activity in NDM-1 producing Escherichia coli infected in BALB/c mouse assessed as decrease in IFN-gamma level at 10 mg/kg,IG administration measured after 96 hrs of post-infection by ELISA. Type of assay: functional, organism-based.
For assay [24], the system named is Escherichia coli. The experiment in a line: Antibacterial activity in NDM-1 producing Escherichia coli infected in BALB/c mouse assessed as decrease in pathological damage in liver at 10 mg/kg,IG administration measured after 96 hrs of post-infection by hematoxylin and eosin staining based assay. The class given is functional, organism-based.
For assay [25], the system named is Escherichia coli. Put plainly: Antibacterial activity in NDM-1 producing Escherichia coli infected in BALB/c mouse assessed as decrease in pathological damage in spleen at 10 mg/kg,IG administration measured after 96 hrs of post-infection by hematoxylin and eosin staining based assay. The class given is functional, organism-based.
In assay [26] the test system is Escherichia coli. Put plainly: Antibacterial activity in NDM-1 producing Escherichia coli infected in BALB/c mouse assessed as decrease in pathological damage in small intestine at 10 mg/kg,IG administration measured after 96 hrs of post-infection by hematoxylin and eosin staining based assay. Type of assay: functional, organism-based.
In assay [27] the target is Beta-lactamase NDM-1 (Escherichia coli) (UniProt E5KIY2). The experiment in a line: Inhibition of Escherichia coli NDM-1 assessed as effect on NDM-1 protein expression at 64 ug/ml incubated for 12 hrs by Western blotting analysis. To be noted: dose 64.0 µg/ml. On the technique in general: A western blot detects proteins with antibodies after separation by electrophoresis.

For assay [28] the target is unchanged. Put plainly: Binding affinity to Escherichia coli NDM-1 assessed as melting temperature at 64 ug/ml incubated for 18 hrs by CD spectroscopy. The following applies: dose 64.0 µg/ml.
Assay [29] shares this target. The experiment in a line: Inhibition of Escherichia coli recombinant wild type NDM-1 expressed in Escherichia coli BL21 (DE3) incubated for 10 mins.
For assay [30] the target is unchanged. Put plainly: Inhibition of Escherichia coli recombinant wild type NDM-1 expressed in Escherichia coli BL21 (DE3) at 4 to 128 ug/ml incubated for 10 mins relative to control. The following applies: dose 4-128 µg/ml.
For assay [31], the system named is Beta-lactamase NDM-1 (Escherichia coli), E5KIY2 [UNDEFINED MUTATION]. Put plainly: Inhibition of Escherichia coli recombinant NDM-1 mutant expressed in Escherichia coli BL21 (DE3) at 4 to 128 ug/ml incubated for 10 mins. To be noted: dose 4-128 µg/ml.
Assay [32] addresses T1, Beta-lactamase NDM-1. The experiment in a line: Binding affinity to Escherichia coli NDM-1 assessed as equilibrium dissociation constant measured for 60 sec by bio-layer interferometry analysis.
Assay [33] addresses Beta-lactamase NDM-1 (Escherichia coli) (UniProt E5KIY2). Put plainly: Binding affinity to Escherichia coli NDM-1 by bio-layer interferometry analysis.

≈ marks a conversion by molar mass, not a printed value. Calls of active or inactive are those of the source. The rule behind the calls is not given here.

In assay [1], `N[C@@H](CN[C@@H](CN[C@@H](CC(=O)O)C(=O)O)C(=O)O)C(=O)O` had an IC50 of 4.1 µM.
Turning to `C[C@@H](O)[C@H]1C(=O)N2C(C(=O)O)=C(S[C@@H]3CN[C@H](C(=O)N(C)C)C3)[C@H](C)[C@H]12` [MEROPENEM], the MIC in assay [2] is 64 µg/mL (≈ 167 µM). Moreover, in [3], the outcome was inactive. In assay [4], the survival at 10 mg/kg is 40%. Further, the outcome in [5], in [6], in assay [7], in assay [8], in assay [9] and in [10] was Active.
For `COc1cccc(-c2ccc(NC(=O)C3=C(C(=O)O)CCC3)c(F)c2)c1` [VIDOFLUDIMUS], the results for the MIC in [2], in [11] and in [12] were 1020 µg/mL (≈ 2880 µM), 64 µg/mL and 4 µg/mL, respectively. Moreover, in [13], the “fractional inhibitory concentration index (FICI)” value stood at 0.125. This compound gave an IC50 in [14] of 13.8 µM. The inhibition is 93.3% in [15], “Dose-Dependent Effect” in [29] and 14.9% in assay [30]. Also, the result in assay [16], in assay [17], in [20], in [21], in [22] and in assay [23] was inactive. Also, the outcome in [24], in assay [25] and in [26] was inactive. Besides, the survival at 10 mg/kg in [18] was found to be 10%; in assay [19], 90%. Also, the inhibition entry in assay [27] and in assay [31] was “inactive” each time. In [28], the Tm stood at 58 °C. Also, in assay [32], the Kd is 0.337 µM. In addition, the Activity result in [33] was “Dose-Dependent Effect”.

The IC50 is the concentration that gives 50% inhibition. A lower IC50 goes with higher potency. What is called MIC is the lowest concentration that inhibits growth of the organism. Usually inhibition stands for the relative decrease from the control value, in per cent. The term Kd denotes the concentration at which binding is half-saturated.

The values are drawn from ChEMBL document CHEMBL5385903, “The activity and mechanism of vidofludimus as a potent enzyme inhibitor against NDM-1-positive E. coli” (Eur J Med Chem, 2023).
